{"source": "patent US20020010128A1", "about": "“Treatment of hyperproliferative, inflammatory and related mucocutaneous disorders using inhibitors of mevalonate synthesis and metabolism” (priority 2000, published 2002)", "key": {"NFAT": {"test_system": "NFAT", "assay": "NFAT-regulated reporter gene in transiently transfected Jurkat cells", "format": "cell-based, human", "details": "for NFAT activity induced by ionomycin and dominant active ras / NFAT activity stimulated by PMA and dominant active calcineurin: Jurkat cells", "source_text": "The effects of lovastatin on NFAT activation and IL-2 gene expression were investigated in Jurkat T cells (human leukemia T cells). Lovastatin inhibited the expression of an NFAT-regulated reporter gene in transiently transfected Jurkat cells stimulated with ionomycin and PMA or with thapsigargin + PMA.\nNFAT is synergistically activated by the Ca^2+/calcineurin and PKC/ras/MAPK pathways. To gain further insight into the novel mechanism of action of lovastatin, dominant active forms of calcineurin and ras were expressed in Jurkat cells to bypass early signaling events mediated by ionomycin (i.e., Ca^2+) and PMA (i.e., PKC)."}, "Murine thymic T cells": {"test_system": "Murine thymic T cells", "assay": "Murine thymic T cell proliferation (ConA stimulation, MTT assay)", "format": "cell-based", "details": "for effect of mevalonate on inhibition of T cell proliferation: presence of 1 mM mevalonate; for inhibition of T cell proliferation: murine thymic T cells, different concentrations", "protocol": "Murine thymic T cells were stimulated with Concanavalin A and incubated for 72 hr, and proliferation was then assessed by measuring viable cell number using the MTT assay (OD 570 nm proportional to viable cell number). Different concentrations of mevastatin and oxysterol alone (CP compounds; Panel A) or oxysterol combined with lanolin (Panel B) were added to the cells 1 hr following ConA treatment (FIG. 2).\nT cells were incubated with different concentrations of mevastatin (CP 115) alone or in the presence of 1 mM mevalonate (MA). The inhibition of T cell proliferation by mevastatin was prevented by addition of mevalonic acid, the product of the HMG-CoA reductase reaction (FIG. 3).\nMurine thymic T cells were incubated with different concentrations of 25-hydroxycholesterol (CP 105; Panel A) or an oxysterol combined with lanolin (C-010; Panel B) in the absence or presence of 1 mM mevalonate (MA).\nTo further test this synergistic effect, T cells were incubated with different concentrations of mevastatin alone or in combination with 0.25 μg/ml 25-hydroxycholesterol (CP 105; FIG. 5, Panel A) or 10 μg/ml of an oxysterol combined with lanolin (C-010; FIG. 5, Panel B). The data was expressed as percent of control proliferation. CP 105 and C-010 inhibited T cell proliferation 14% and 28% at the indicated concentrations, respectively. Thus minimally effective concentrations of 25-hydroxycholesterol and C-0010-010 decreased the IC50 of mevastatin by a factor greater than 10-fold (FIG. 5). This experiment confirmed that the inhibition of T cell proliferation by mevastatin is advantageously potentiated by oxysterols.\nMurine thymic T cells were incubated with different concentrations of an inhibitor of geranylgeranyl transferase (GGTI)."}, "[1]": {"test_system": "RSV-driven control reporter gene", "assay": "RSV-driven control reporter gene in Jurkat cells", "format": "cell-based, human", "source_text": "(§1) The effects of lovastatin on NFAT activation and IL-2 gene expression were investigated in Jurkat T cells (human leukemia T cells)."}, "IL-2 mRNA": {"test_system": "IL-2 mRNA", "assay": "IL-2 mRNA accumulation in stimulated Jurkat cells", "format": "cell-based, human", "details": "Jurkat cells stimulated with ionomycin and PMA", "source_text": "(§2) Since NFAT plays a critical role in IL-2 gene transcription, the effects of lovastatin on IL-2 mRNA levels and IL-2 secretion from stimulated lymphoid cells were investigated."}, "IL-2": {"test_system": "IL-2", "assay": "IL-2 secretion from stimulated Jurkat cells", "format": "cell-based, human", "source_text": "as §2"}, "[2]": {"test_system": "RBL-2H3 mucosal mast cell line", "assay": "3H-serotonin release (degranulation) from RBL-2H3 mast cells", "format": "cell-based", "source_text": "The RBL-2H3 mucosal mast cell line has been used extensively to study stimulus secretion coupling. Treatment with a calcium ionophore or antigenic crosslinking of the high affinity receptor for IgE on these cells leads to degranulation and the secretion of various proinflammatory mediators, including biogenic amines such as histamine and serotonin."}, "human IL-2 promoter": {"test_system": "human IL-2 promoter", "assay": "Human IL-2 promoter activation in Jurkat cells", "format": "cell-based", "source_text": "as §1"}, "TNF-α": {"test_system": "TNF-α", "assay": "TNF-alpha secretion from stimulated Jurkat cells", "format": "cell-based, human", "details": "ionomycin and PMA-stimulated Jurkat cells"}, "[3]": {"test_system": "oxazolone-induced contact hypersensitivity in mice", "assay": "Oxazolone-induced contact hypersensitivity in mice", "format": "in vivo, mouse", "details": "topical sensitizer oxazolone instead of DNFB", "method": "Challenging mouse ears with haptens, such as 1-chloro-2,4-dinitrobenzene (DNCB), 2,4-dinitrofluorobenzene (DNFB), or oxazolone after a 5 day sensitization phase, induced severe swelling associated with an immune response that included a memory T cell infiltrate. Maximum swelling occurred between 24 and 48 hours after challenge. Thus, DNFB, DCNB and oxazolone were considered to induce delayed contact hypersensitivity.\nThe protocol involved shaving the posterior portion of the backs of anesthetized 7-8 week old female Balb/c mice with electric clippers. DNCB in acetone:olive oil (4:1), DNFB in acetone alone or oxazolone (15% oxazolone in 97% acetone/3% DMSO) was applied to the shaved area in a volume of 50 μl (DNCB), 100 μl (DNFB), or 20 μl (oxazolone). The concentration of DNCB in the sensitizing solution ranged from 0.5% to 4% w/v or 0.1 to 0.5% for DNFB. Five days after sensitization, the thickness of both ears was measured with a spring-loaded micrometer and both surfaces of the ears were challenged with either 10 μl of DNCB in acetone:olive oil ranging in concentration from 0.25%-2.5% w/v, 10 μl of DNFB in acetone at 0.1%, 10 μl 2% oxazolone in 97% acetone/3% DMSO, or vehicle alone. Post challenge ear thickness measurements were taken at 8, 16, 24, 32, 48, 56 and 72 hours. […]\n(§3) The percent suppression for each formulation was determined at 48 hours post-challenge."}, "[4]": {"test_system": "DNFB-induced contact hypersensitivity in mice", "assay": "DNFB-induced contact hypersensitivity in mice (ear swelling)", "format": "in vivo, mouse", "details": "1% topical, applied 30 minutes or one hour after challenge, 48 hours post-challenge", "method": "The protocol involved shaving the posterior portion of the backs of anesthetized 7-8 week old female Balb/c mice with electric clippers. […] The concentration of DNCB in the sensitizing solution ranged from 0.5% to 4% w/v or 0.1 to 0.5% for DNFB. […] Post challenge ear thickness measurements were taken at 8, 16, 24, 32, 48, 56 and 72 hours. […] However, a swelling response of at least 50% above baseline was considered reasonable.\nas §3"}, "Asthma patients": {"test_system": "Asthma patients", "assay": "Treatment of asthma patients with aerosolized lovastatin", "format": "in vivo, human", "details": "aerosolized form or nasal inhaler"}, "[5]": {"test_system": "TPA-induced ear swelling in mice", "assay": "TPA-induced ear swelling, mouse acute irritant dermatitis model", "format": "in vivo", "protocol": "Mevastatin was tested topically at 0.5% with several oxysterols known to downregulate HMG-CoA reductase expression, including 25-hydroxycholesterol, in the mouse acute irritant dermatitis model. TPA was applied topically to the ears of mice and the resultant swelling response was measured 24 hr later. Compounds or vehicle alone were topically applied to ears 1 and 6 hr following TPA treatment. The data was expressed as a percent inhibition of the swelling response in the presence of compounds as compared to ears treated with vehicle only.\nThe phorbol ester 12-0-tetradecanoyl-13-phorbol acetate (TPA) is the active ingredient in […]. TPA induced skin inflammation peaked between 24 and 30 hours when the ear was the target and between 8 and 16 hours when the flank was the target. These two alternative targets allowed to determine both the short and the longer term activity of different compounds in suppressing TPA-induced inflammation. […]\nThe model systems described in Example 9 were employed, using TPA challenge as a model for acute inflammation. […] The percent suppression for each formulation was determined as described in Example 9 at 30 hours post-challenge (for TPA). Results are reported as the percent suppression of inflammation compared to untreated controls, as measured by ear thickness."}}}
{"smiles": "CN(C)CCCn1cc(C2=C(c3c[nH]c4ccccc34)C(=O)NC2=O)c2ccccc21", "note": "[Gö6850]", "values": [{"measurement": "NFAT activity induced by ionomycin and dominant active ras", "setting": "NFAT", "result": "inactive"}, {"measurement": "NFAT activity stimulated by PMA and dominant active calcineurin", "setting": "NFAT", "result": "inhibited"}]}
{"smiles": "C[C@H](CCCC(C)(C)O)[C@H]1CC[C@H]2[C@@H]3CC=C4C[C@@H](O)CC[C@]4(C)[C@H]3CC[C@]12C", "note": "[25-hydroxycholesterol]", "values": [{"measurement": "inhibition at 0.25 µg/mL", "setting": "Murine thymic T cells; Mus musculus, T-cell, 0.25 μg/ml", "result": 14, "unit": "%"}, {"measurement": "effect of mevalonate on inhibition of T cell proliferation", "setting": "Murine thymic T cells", "result": "not prevented by mevalonic acid"}]}
{"smiles": "CC[C@H](C)C(=O)O[C@H]1C[C@@H](C)C=C2C=C[C@H](C)[C@H](CC[C@@H]3C[C@@H](O)CC(=O)O3)[C@H]21", "note": "[lovastatin]", "values": [{"measurement": "transcription from RSV-driven control reporter gene", "setting": "[1]", "result": "did not affect"}, {"measurement": "IL-2 mRNA accumulation", "setting": "IL-2 mRNA", "result": "inhibited"}, {"measurement": "IC50", "setting": "IL-2; Jurkat cells stimulated with ionomycin and PMA, read-out: IC50, inhibition of IL-2 secretion", "result": 12, "unit": "µM"}, {"measurement": "effect of mevalonic acid on inhibition of IL-2 secretion", "setting": "IL-2; addition of mevalonic acid", "result": "not reversed"}, {"measurement": "release of 3H-serotonin", "setting": "[2]; RBL-2H3 cells stimulated with antigen or calcium ionophore, dose-dependent", "result": "inhibited"}, {"measurement": "effect of mevalonic acid on inhibition of 3H-serotonin release", "setting": "[2]; co-incubation with mevalonic acid", "result": "not reversed"}, {"measurement": "activation of the human IL-2 promoter", "setting": "human IL-2 promoter", "result": "inhibited activation"}, {"measurement": "TNF-α secretion", "setting": "TNF-α", "result": "inhibit"}, {"measurement": "suppression of oxazolone-induced contact hypersensitivity", "setting": "[3]", "result": "dose-dependent"}, {"measurement": "NFAT activity induced by ionomycin and dominant active ras", "setting": "NFAT", "result": "strongly inhibited"}, {"measurement": "NFAT activity stimulated by PMA and dominant active calcineurin", "setting": "NFAT", "result": "relatively insensitive"}, {"measurement": "expression of NFAT-regulated reporter gene", "setting": "NFAT; Jurkat cells stimulated with ionomycin and PMA or thapsigargin + PMA", "result": "inhibited"}, {"measurement": "effect of mevalonic acid on inhibition of NFAT reporter activity", "setting": "NFAT; preincubation of Jurkat cells with mevalonic acid", "result": "did not reverse"}, {"measurement": "IC50", "setting": "NFAT; stated as similar to the IL-2 secretion IC50, read-out: IC50, inhibition of NFAT-dependent reporter activity", "result": "~12", "unit": "µM"}, {"measurement": "suppression of DNFB-induced delayed contact hypersensitivity (ear swelling)", "setting": "[4]", "result": "reduced delayed contact hypersensitivity"}, {"measurement": "relief of lung constriction and inflammation in asthma patients", "setting": "Asthma patients", "result": "more effective relief of lung constriction and inflammation"}]}
{"smiles": "CC[C@H](C)C(=O)O[C@H]1CCC=C2C=C[C@H](C)[C@H](CC[C@@H]3C[C@@H](O)CC(=O)O3)[C@H]21", "note": "[mevastatin]", "values": [{"measurement": "percent suppression of TPA-induced acute inflammation, measured by ear thickness", "setting": "[5]; 0.5% in ethanol/cyclohexane (1:1), applied 30 minutes or one hour after challenge, 30 hours post-challenge", "result": 58, "unit": "%"}, {"measurement": "inhibition of TPA-induced ear swelling", "setting": "[5]; 0.5% topical, applied 1 and 6 hr after TPA, swelling measured 24 hr later", "result": "significantly inhibited"}, {"measurement": "inhibition of T cell proliferation", "setting": "Murine thymic T cells", "result": "potently inhibit"}, {"measurement": "effect of mevalonate on inhibition of T cell proliferation", "setting": "Murine thymic T cells", "result": "reversed by mevalonate"}]}
{"smiles": "COC(=O)[C@H](CC(C)C)NC(=O)c1ccc(NC[C@@H](N)CS)cc1-c1ccccc1", "note": "[GGTI-286]", "values": [{"measurement": "inhibition of T cell proliferation", "setting": "Murine thymic T cells", "result": "Dose-dependent inhibition"}]}
